Measured values taken from patent publication US6218167A, “Stable biocatalysts for ester hydrolysis” (ThermoGen, Inc., priority 1998, dated 2001).

Assays:
[1] = molecular target: T1, Thermus sp. T351 esterase E101, SEQ ID NO.:8 (Thermus filiformis, UniProt A0A0A2WSC9); assay: biochemical; format: biochemical
T1 construct: T351; native about 135 kD
Description: The specific activity of the enzyme is ten fold greater than observed for E100 with 4-methyl-umbelliferyl butyrate (MUB) as the substrate. E101 is inhibited by PMSF but is insensitive to metal ions or metal ion chelators. […] Table 5 outlines the inhibitory effect of various substances on E101 activity.
Reaction conditions are those described in the general experimental above

[2] = system: Thermus sp. T351 esterase E100; assay: Inhibition by reaction components of p-nitrophenylproprionate hydrolysis by E100; format: biochemical; conditions: no concentration stated
Experimental: Esterase activity is measured by monitoring the hydrolysis of p-nitrophenylproprionate (pNP), or in some cases MUB. Each substrate is dissolved in acetonitrile and added to the reaction mixture (100 μM final concentration) which contain 50 mM Tris HCl pH 8.5 adjusted for temperature dependent pH variation. Reactions are thermally equilibrated at 37° C. for 5 minutes prior to initiation of the reaction by addition of 10 μL of enzyme sample, while control reactions substituted equivalent amounts of BSA. The reaction is monitored spectrophotometrically at 405 nm ε=17 mM^-1 cm^-1 for pNP and 360 nm ε=7.9 mM^-1 cm^-1 for MUB.
The rates of enzyme catalyzed hydrolysis are corrected for the spontaneous hydrolysis of the substrate. Protein concentrations are determined by either the absorbance at 280 nm or by Lowery assay. Crude activity is determined by a calorimetric assay based on the hydrolysis of 5-bromo-4-chloro-3-indoyl esters suspended in a 0.7% agar matrix on microtiter plates. A 0.1 mg/ml solution of the indolyl derivative is dissolved in a minimal volume of acetonitrile and added to a warm solution of 0.7% agar containing 0.1M phosphate buffer pH 7.5. 10 μL of this solution is distributed to microtiter plates which, when cooled, could be used with as much as 100 μL of enzyme sample and incubated at temperatures from ambient to >65° C. […]

T1 sequence (A0A0A2WSC9 entry or part of it A175T/N178S/T194S/A197P/K279Q/P281S): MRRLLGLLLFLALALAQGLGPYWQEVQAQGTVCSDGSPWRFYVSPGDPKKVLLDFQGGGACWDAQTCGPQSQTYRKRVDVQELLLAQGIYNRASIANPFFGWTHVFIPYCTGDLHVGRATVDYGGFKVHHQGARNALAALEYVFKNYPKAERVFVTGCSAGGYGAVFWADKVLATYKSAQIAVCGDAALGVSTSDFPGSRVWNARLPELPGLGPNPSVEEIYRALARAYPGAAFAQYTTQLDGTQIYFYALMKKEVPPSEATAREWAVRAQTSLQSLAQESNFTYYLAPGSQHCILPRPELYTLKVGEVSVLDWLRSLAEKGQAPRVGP

OCCS [BME, β-mercaptoethanol]
activity at 10000 µM ([1]; read-out: Relative Rate): 96%

OC(CS)C(O)CS (stereo not drawn) [DTT]
activity at 1000 µM ([1]; read-out: Relative Rate): 98%

O=C(O)CN(CCN(CC(=O)O)CC(=O)O)CC(=O)O [EDTA]
activity at 1000 µM ([1]; read-out: Relative Rate): 93%

O=S(=O)(F)Cc1ccccc1 [PMSF]
Relative Rate ([1]; additive 0.1 mM, None = 100%, substrate p-nitrophenylproprionate): 0%
Inhibition of E101 (in words) ([1]; no concentration stated): inhibited

Cc1ccc(S(=O)(=O)F)cc1 [tosyl fluoride]
Inhibition of E100 (in words) [2]: effectively inhibited
